Test results as given in patent publication US20090137544A1 (priority 2006, published 2009).
Like-named read-outs stand apart in the source and are kept apart here.

Legend:
[1] = system: Hedgehog signaling activity; experiment: Gli-luciferase reporter assay in rat hepatic stellate cell line; type: cell-based; conditions: for CONCENTRATION REGION restoring Hedgehog signaling activity / PREFERRED CONCENTRATION restoring Hedgehog signaling activity: alcohol-treated hepatic stellate cells; for efficacy order on hedgehog signaling: fish and rat liver cell line
Protocol: The Gli-luciferase reporter assay was performed in duplicated experiments of a rat hepatic stellate cell line, […]. Briefly, […] cells, were grown in DMEM medium supplemented with 10% fetal bovine serum and penicillin and streptomycin (100 U/ml). At 40-50% confluency, cells were transfected with Gli-BS-Firefly luciferase plasmid (60 ng nl^−1) and Renilla luciferase plasmid ([…], pRL-TK, Promega) (concentration ratio 10:1) by using FuGENE 6 Transfection Reagent (Roche Applied Science). […] Two hours later, the medium was added to different drugs (20α-OHC, 22(S)-OHC, 25-OHC and cholesterol). After 16 hrs, the cells were washed three times in ice-cold PBS, and then were assayed by Dual/Luciferase Reporter Assay System (Promega). Activity of the Firefly luciferase reporter was normalized to the activity of a Renilla luciferase internal control for transfection efficiency.

zebra fish embryos [2] = experiment: Zebra fish embryo exposure to alcohol, cyclopamine or AY-9944: survival and phenotype; conditions: for developmental malformations of treated embryos: transient treatment during gastrulation, alcohol 2%, cyclopamine 10.0 μM, AY-9944 7.5 μM
[3] = system: Shh target genes Ptc, Gli1, Nkx2.2; conditions: real-time quantitative PCR
Protocol: Total RNA was extracted from embryos (n=10) with RNeasy kits (Qiagen). RT-PCR were performed using primers (information listed in following table) as previously described.^52

[4] = system: Hh-responsive Gli-BS luciferase reporter; experiment: Gli-luciferase reporter assay in embryos; type: in vivo, zebra fish
Protocol: The Gli-luciferase reporter assay was performed in replicate experiments of pooled embryos (n=15). Briefly, zebra fish embryos at the 1-2 cell stage were microinjected with 0.5 nl of Gli-BS-Firefly luciferase plasmid (60 ng nl^−1) and Renilla luciferase plasmid (60 ng nl^−1, pRL-TK, Promega). Reporter activity was determined by using the Dual-Luciferase Reporter Assay System (Promega). Activity of the Firefly luciferase reporter was normalized to the activity of a Renilla luciferase internal control for transfection efficiency.
(§1) Embryos were microinjected at 1-2 cell stage with 0.2 nl of 5 μg μl^−1 ([…]) cholesterol (BioVision Inc.) with or without the two plasmids for the Gli-luciferase reporter assay. […] At 48 hpf embryos were analyzed.

Shh [5] = conditions: alcohol-exposed embryos, Western blot
Excerpt: Total cellular protein was isolated as previously described^51 and cell membrane proteins were isolated using the Mem-PER(r) Eukaryotic Membrane Protein Extraction Reagent Kit (Pierce Biotechnology). Proteins (4o μg) in Laemmli buffer were then separated by 12% Tris-HCl SDS-polyacrylamide gel electrophoresis and transferred to a PVDF membrane. Membranes were blocked, washed, and exposed to primary antibodies (Santa Cruz Biotechnology) against Shh (N-19, Catalog number: sc-1194; dilution: 1:2.500) and β-actin (1:1.000). Signals were detected by Anti-goat HRP antibody (1:10.000, Amersham).

[6] = alcohol exposure during gastrulation, dose-related
Protocol: Cholesterol content was then measured by the Arnplex Red Cholesterol Assay Kit (Invitrogen).

[7] = alcohol-exposed embryos
Excerpt: Upon esterified reaction, then the cholesterol ester can be transported from the embryonic yolk to the body. […] The fluorescent molecule, Filipin can selectively bind to free cholesterol, but not cholesterol ester; in other hand, the dye of oil red O identifies neutral lipids molecules such as cholesterol ester, but not polarized free cholesterol. First, applicant quantitatively analyzed the free cholesterol by whole mount in situ filipin staining.

zebra fish embryos [8] = experiment: Cholesterol microinjection rescue of alcohol-exposed embryos; type: in vivo; conditions: 48 hpf
Protocol: as §1

Shh secretion = conditions: 3 hours, HSC 8B cells, Elisa
Protocol: Applicant analyzed proteins collected from the HSC 8B culture medium for Shh ligand content using two independent methods: Western blot analysis and Elisa assay. […] The cultures were incubated for an additional 3 hours, and culture medium was then harvested and concentrated for protein isolation.

Caveolin-1/Shh complex = conditions: alcohol 0.3, 0.5, 0.6, 0.8% w/v for 2 hours
Excerpt: First, as described in FIG. 6, cellular proteins isolated by non-ionic detergent resistant cellular extraction were fractionalized by density gradient ultracentrifugation. […] Fractions 7 through 9 from the density gradient were pooled and used in the immunoprecipitation assay.

zebra fish embryos [9] = conditions: zebrafish, in vivo
Shh [10] = system: Shh
Shh [11] = conditions: 0.6% alcohol (w/v, 109 mM) for 30 minutes
Shh [12] = system: Shh; remark: listed apart in the source
zebra fish embryos [13] = conditions: 2.0% alcohol for 6 hours from 4.3 hpf, no supplement; 72 hpf
[14] = chronic alcohol feeding versus both control groups, p<0.001

C[C@H](CCCC(C)(C)O)[C@H]1CC[C@H]2[C@@H]3CC=C4C[C@@H](O)CC[C@]4(C)[C@H]3CC[C@]12C [25-hydroxycholesterol, 5-cholestene-3b,25-diol]
CONCENTRATION REGION restoring Hedgehog signaling activity [1]: 0.1 to 100 µM | PREFERRED CONCENTRATION restoring Hedgehog signaling activity [1]: 5 to 15 µM | efficacy order on hedgehog signaling [1]: efficacy order is 25-OHC, 22(S)-OHC, cholesterol, 20α-OHC and followed with squalene

CC1=C2C[C@H]3[C@@H](CC=C4C[C@@H](O)CC[C@@]43C)[C@@H]2CC[C@]12O[C@@H]1C[C@H](C)CN[C@H]1[C@H]2C [cyclopamine, 11-deoxojervine, reference compound]
developmental malformations of treated embryos (zebra fish embryos [2]): HPE and partial cyclopia, as well as underdevelopment of the craniofacial bones and muscles, and failure of the heart tube to loop

2,6,10,15,19,23-Hexamethyl-2,6,20,24,28,22-Tetracosahexaene [Squalene]
CONCENTRATION REGION restoring Hedgehog signaling activity [1]: 0.1 to 100 µM | PREFERRED CONCENTRATION restoring Hedgehog signaling activity [1]: 1 to 10 µM | efficacy order on hedgehog signaling [1]: efficacy order is 25-OHC, 22(S)-OHC, cholesterol, 20α-OHC and followed with squalene

CC(C)CCC[C@](C)(O)[C@H]1CC[C@H]2[C@@H]3CC=C4C[C@@H](O)CC[C@]4(C)[C@H]3CC[C@@]21C [20α-Hydroxycholesterol, 20-hydroxycholesterol]
CONCENTRATION REGION restoring Hedgehog signaling activity [1]: 0.1 to 100 µM | PREFERRED CONCENTRATION restoring Hedgehog signaling activity [1]: 1 to 5 µM | efficacy order on hedgehog signaling [1]: efficacy order is 25-OHC, 22(S)-OHC, cholesterol, 20α-OHC and followed with squalene

Cl.Cl.Clc1ccccc1CNC[C@H]1CC[C@H](CNCc2ccccc2Cl)CC1 [AY-9944, trans-1,4 bis-(2-dichlorobenzylaminomethyl) cyclohexane dihydrochloride, reference compound]
developmental malformations of treated embryos (zebra fish embryos [2]): HPE and partial cyclopia, as well as underdevelopment of the craniofacial bones and muscles, and failure of the heart tube to loop

CC(C)CCC(O)[C@@H](C)[C@H]1CC[C@H]2[C@@H]3CC=C4C[C@@H](O)CC[C@]4(C)[C@H]3CC[C@]12C (stereo partly drawn) [22(S)-Hydroxycholesterol, 5-cholestene-3b,22-diol]
CONCENTRATION REGION restoring Hedgehog signaling activity [1]: 0.1 to 100 µM | PREFERRED CONCENTRATION restoring Hedgehog signaling activity [1]: 1 to 5 µM | efficacy order on hedgehog signaling [1]: efficacy order is 25-OHC, 22(S)-OHC, cholesterol, 20α-OHC and followed with squalene

CCO [Alcohol, ethanol]
change in expression of Ptc or Gli1 ([3]; 0.25% alcohol): no significant change | decrease of Nkx2.2 expression ([3]; 0.25% alcohol): about 50% | Shh transcription ([3]; alcohol concentrations higher than 1.0%): decreased | Gli-BS luciferase activity in embryos ([4]; following alcohol exposure (0.25-2.0%)): decreased in a dose-related fashion | Shh in cellular membrane protein fraction (Shh [5]): progressive loss of Shh from the cellular membrane protein fraction | total cholesterol content of the embryos [6]: decrease in the total cholesterol content | cholesterol ester (oil red O staining) in embryo yolk and body [7]: dramatic decrease of cholesterol ester in the embryonic yolk, with little or no change in its concentration in the embryonic body | free cholesterol (filipin staining) in embryo body and yolk [7]: large decrease in cholesterol concentration in the embryonic body, but not in the embryonic yolk | embryos with FASD-like phenotypes (zebra fish embryos [8]; alcohol-exposed, unsupplemented embryos): 83.3% | decrease in Shh secretion (Shh secretion; 0.3% (55 mM) alcohol): 1.2 fold | decrease in Shh secretion (Shh secretion; 0.6% (109 mM) alcohol): 4.2 fold | decrease in Shh secretion (Shh secretion; 0.8% (136 mM) alcohol): 5.5 fold | amount of Caveolin-1 in the lipid raft fractions (Caveolin-1/Shh complex): did not affect the amount of Caveolin-1 | amount of Shh in Caveolin-1 containing lipid raft fractions (fractions 7-9) (Caveolin-1/Shh complex): decreased in an alcohol dose-dependent manner | Hedgehog signaling (Gli binding site derived luciferase activities) in hepatic stellate cells ([1]; alcohol 0.25, 0.5, 0.75 and 1.0% v/v versus no alcohol (A0)): decrease Hedgehog signaling activates | embryos alive at 48 hpf (zebra fish embryos [9]): 10% | embryos alive with minimal abnormalities at 48 hpf (zebra fish embryos [9]): 18% | embryos alive with normal phenotypes at 48 hpf (zebra fish embryos [9]): 72.3% | living embryos phenotypically normal at 48 hpf (zebra fish embryos [9]): 2.6% | Shh distribution pattern relative to ER marker (Shh [10]; 0.6% (w/v) alcohol for one hour): diffuse, homogeneous distribution pattern | punctate co-localized Caveolin-1/Shh particles (Shh [10]; alcohol 0.4% and 0.8% (w/v) for thirty minutes): dramatically decreased in an alcohol dose dependent manner | density gradient distribution of Shh (Shh [11]): restricted to fractions 12 through 17 | co-localization of Shh and lipid raft (Shh [12]; alcohol 0.25% v/v for 5 minutes): disrupted | Shh localization (Shh [12]; alcohol 1% for one hour): almost all of the Shh protein was accumulated inside of the liver stellate cells | embryos developed relatively normal on gross morphology (zebra fish embryos [13]): 15% | ratio of cholesterol ester to total cholesterol in plasma [14]: significantly decreased | survival rate at 48 hpf (zebra fish embryos [2]; 0.25% alcohol for 6 h, late blastula-gastrula stage (second window)): over 90% | embryos survived to 48 hpf (zebra fish embryos [2]; 0.25% alcohol, first exposure window (1 to 2 cell stages to 3 hpf)): < 40% | embryos that failed to survive to 48 hpf (zebra fish embryos [2]; 0.25% alcohol, second exposure window): < 10% | embryos survived through 48 hpf with abnormal morphology (zebra fish embryos [2]; 2% alcohol, second exposure window): 84% | embryos for which exposure was lethal (zebra fish embryos [2]; 2% alcohol, second exposure window, 48 hpf): 13%

CC(C)CCC[C@@H](C)[C@H]1CC[C@H]2[C@@H]3CC=C4C[C@@H](O)CC[C@]4(C)[C@H]3CC[C@]12C [Cholesterol, 10,13-dimethyl-17-(6-methylheptan-2-yl)-2,3,4,7,8,9,11,12,14,15,16,17-dodecahydro-1H-cyclopenta[a]phenanthren-3-ol]
Gli-BS reporter activity in cholesterol-supplemented, alcohol-exposed embryos ([4]; cholesterol 10 pg microinjected at 1-2 cell stage, various alcohol concentrations during gastrulation): preserved at all doses of alcohol exposure | embryos that appeared grossly normal (zebra fish embryos [8]; cholesterol-supplemented (10 pg), alcohol-exposed embryos): 94.8% | CONCENTRATION REGION restoring Hedgehog signaling activity [1]: 1 to 50 µM | PREFERRED CONCENTRATION restoring Hedgehog signaling activity [1]: 1 to 20 µM | efficacy order on hedgehog signaling [1]: efficacy order is 25-OHC, 22(S)-OHC, cholesterol, 20α-OHC and followed with squalene
